{"source": "patent EP0394283B1", "about": "“USE OF A TRIPEPTIDE FOR THE PREPARATION OF PHARMACEUTICAL COMPOSITIONS AND A PHARMACEUTICAL COMPOSITION AND METHOD” (Hafslund Nycomed AS, priority 1987, dated 1992)", "test_system": "large intestinal epithelium", "assay": "Mitotic rate (Colcemid-arrested metaphases per 500 crypt cells) in the large intestinal epithelium after i.p. injection", "type": "in vivo, hairless mice", "settings": "dose of 10⁻¹² mole per animal, at the doses and times tested", "protocol": "All in vivo experiments were performed with hairless mice at 0800-0900 AM. The fractions were suspended in distilled water, slightly acidified (pH=6) and injected i.p. at different doses dependent on the purity of the fraction. The controls received solvent only. The pattern of cell proliferation after injecting the peptide was examined by varying the time between treatment and sacrifice.\nTwo hours before sacrifice (except for the experiments testing tissue specificity in the kidney) all animals received Colcemid 0.15 mg per animal i.p. ³HTdR (tritiated thymidine) was injected 30 minutes before sacrifice (30 µCi per animal i.p.). […]\nMitotic rate: After routine dehydration and paraffin embedding, sections were cut at 5 µm and stained with haematoxylin. Colcemid-arrested mitoses per 500 crypt cells were determined in ten longitudinally cut crypts in ileum and colon. […] The number of accumulated metaphases in epidermis was determined by counting 25 vision fields of interfollicular epidermis (eyepiece 12.5, objective 40) and expressed as mitoses per vision field per 2h.", "note": "Residues, ends and D or L forms follow the SMILES beside them.", "data": [{"compound": "O=C(O)CC[C@H](NC(=O)[C@@H]1CCC(=O)N1)C(=O)N[C@@H](CC(=O)O)C(=O)N[C@@H](CO)C(=O)NCC(=O)O", "note": "[pGlu-Glu-Asp-Ser-Gly(OH)] (HELM PEPTIDE1{[Glp].E.D.S.G}$$$$V2.0)", "values": [{"measurement": "cell proliferation in the large intestinal epithelium", "value": "unchanged"}]}]}
